From PubChem BioAssay AID258 (DTP/NCI, 2004)
Values joined by “and” are separate entries in the source; they are usually repeats but may differ in a detail not shown here. Identical values can stand only once. Toxic doses and inconclusive results are not listed.

Tested on: CD2F1 mice, L1210 leukemia sc, survival T/C
Test: NCI In Vivo Anticancer Drug Screen. Data for tumor model L1210 Leukemia (subcutaneous) in CD2F1 (CDF1) mice
Conditions: endpoint: median survival time, higher = longer survival
Protocol: The antitumor activity of compounds was measured in mice bearing transplantable tumors. Survival or tumor size were measured and the results are expressed as the measurement made in the treated group (T) divided by the measurement made in the vehicle treated control group (C). The tumor model used in this assay is L1210 Leukemia (subcutaneous) in CD2F1 (CDF1) mice

[1] = dose: 14.0 mg/kg/injection, schedule: Q01DX Z (sc), vehicle: other
[2] = dose: 108.0 mg/kg/injection, schedule: Q01DX Z (sc), vehicle: water
[3] = dose: 180.0 mg/kg/injection, schedule: Q01DX Z (sc), vehicle: water

With `C[C@H](N)C(=O)N[C@@H]1[C@H]2C(=C(O)C[C@@H](O)[C@@H]2O)C(=O)O[C@]1(C)C(Cl)Cl` the T/C (dose: 0.37 mg/kg/injection, schedule: Q01DX009 (ip), vehicle: water) was 111 % of control, the T/C (dose: 0.62 mg/kg/injection, schedule: Q01DX005 (ip), vehicle: water) was 112 % of control and the T/C (dose: 0.62 mg/kg/injection, schedule: Q01DX005 (iv), vehicle: water) was 113 % of control. For the same compound, the T/C (dose: 0.75 mg/kg/injection, schedule: Q01DX009 (ip), vehicle: water) was 120 % of control, the T/C (dose: 0.75 mg/kg/injection, schedule: Q01DX009 (sc), vehicle: water) was 116 % of control and the T/C (dose: 1.25 mg/kg/injection, schedule: Q01DX005 (ip), vehicle: water) was 124 % of control. The T/C (dose: 1.5 mg/kg/injection, schedule: Q01DX009 (oral), vehicle: water) was 108 % of control, the T/C (dose: 3.0 mg/kg/injection, schedule: Q01DX009 (ip), vehicle: water) was 160 % of control and the T/C (dose: 3.0 mg/kg/injection, schedule: Q01DX009 (oral), vehicle: water) was 109 % of control. The T/C (dose: 3.0 mg/kg/injection, schedule: Q01DX009 (sc), vehicle: water) was 160 % of control, the T/C (dose: 6.0 mg/kg/injection, schedule: Q01DX009 (oral), vehicle: water) was 112 % of control and the T/C (dose: 12.0 mg/kg/injection, schedule: Q01DX009 (oral), vehicle: water) was 120 % of control.

With `Nc1nc(=S)c2[nH]cnc2[nH]1` the T/C (dose: 2.16 mg/kg/injection, schedule: Q01DX Z (sc), vehicle: other) was 177 % of control, the T/C (dose: 3.6 mg/kg/injection, schedule: Q01DX Z (sc), vehicle: other) was 177 % of control and the T/C (dose: 6.0 mg/kg/injection, schedule: Q01DX Z (sc), vehicle: other) was 177 % of control. The T/C (dose: 10.1 mg/kg/injection, schedule: Q01DX Z (sc), vehicle: other) was 166 % of control and the T/C (dose: 16.9 mg/kg/injection, schedule: Q01DX Z (sc), vehicle: other) was 161 % of control.

In the case of `N[C@H](C(=O)O)[C@@H]1CC(Cl)=NO1`, the T/C (dose: 2.0 mg/kg/injection, schedule: Q01DX009 (sc), vehicle: saline) was 116 % of control.

In the case of `CC[n+]1c(-c2ccccc2)c2cc(N)ccc2c2ccc(N)cc21`, the T/C (dose: 5.0 mg/kg/injection, schedule: Q01DX Z (sc), vehicle: carboxymethylcellulose (CMC)) was 100 % of control, the T/C (dose: 8.4 mg/kg/injection, schedule: Q01DX Z (sc), vehicle: carboxymethylcellulose (CMC)) was 94 % of control and the T/C (dose: 14.0 mg/kg/injection, schedule: Q01DX Z (sc), vehicle: carboxymethylcellulose (CMC)) was 100 % of control. For the same compound, the T/C (dose: 23.0 mg/kg/injection, schedule: Q01DX Z (sc), vehicle: carboxymethylcellulose (CMC)) was 100 % of control, the T/C (dose: 39.0 mg/kg/injection, schedule: Q01DX Z (sc), vehicle: carboxymethylcellulose (CMC)) was 105 % of control and the T/C (dose: 64.0 mg/kg/injection, schedule: Q01DX Z (sc), vehicle: carboxymethylcellulose (CMC)) was 111 % of control.

For `O=C(O)c1cc(=O)[nH]c(=O)[nH]1`, the T/C (dose: 300.0 mg/kg/injection, schedule: Q01DX Z (sc), vehicle: saline) was 100 % of control.

`Nc1ccc(C(=O)O)cn1` was tested, and the T/C [1] was 100 % of control, the T/C (dose: 23.0 mg/kg/injection, schedule: Q01DX Z (sc), vehicle: other) was 100 % of control and the T/C (dose: 37.0 mg/kg/injection, schedule: Q01DX Z (sc), vehicle: other) was 100 % of control. For the same compound, the T/C (dose: 65.0 mg/kg/injection, schedule: Q01DX Z (sc), vehicle: other) was 111 % of control, the T/C (dose: 108.0 mg/kg/injection, schedule: Q01DX Z (sc), vehicle: other) was 100 % of control and the T/C (dose: 180.0 mg/kg/injection, schedule: Q01DX Z (sc), vehicle: other) was 111 % of control.

`Cc1cccnc1` was tested, and the T/C [2] was 100 % of control and the T/C [3] was 100 % of control.

For `CCN(CC)c1ccc(/C=C/c2ccnc3ccccc23)cc1`, the T/C (dose: 39.0 mg/kg/injection, schedule: Q01DX Z (sc), vehicle: water) was 100 % of control, the T/C (dose: 65.0 mg/kg/injection, schedule: Q01DX Z (sc), vehicle: water) was 100 % of control and the T/C [2] was 100 % of control. The T/C [3] was 100 % of control, the T/C (dose: 300.0 mg/kg/injection, schedule: Q01DX Z (sc), vehicle: water) was 100 % of control and the T/C (dose: 500.0 mg/kg/injection, schedule: Q01DX Z (sc), vehicle: water) was 100 % of control.

For `CCN(CC)CCNc1ccc(C)c2sc3ccccc3c(=O)c12`, the T/C (dose: 25.0 mg/kg/injection, schedule: Q01DX009 (ip), vehicle: saline) was 116 % of control, the T/C (dose: 100.0 mg/kg/injection, schedule: Q01DX009 (ip), vehicle: saline) was 158 % of control and the T/C (dose: 200.0 mg/kg/injection, schedule: Q01DX009 (ip), vehicle: saline) was 87 % of control.

With `O=C1c2ccccc2C(=O)c2c(NCCNCCO)ccc(O)c21` the T/C (dose: 5.0 mg/kg/injection, schedule: Q01DX009 (ip), vehicle: suspension in saline) was 103 % of control and 104 % of control, the T/C (dose: 10.0 mg/kg/injection, schedule: Q01DX009 (ip), vehicle: suspension in saline) was 103 % of control and 106 % of control and the T/C (dose: 20.0 mg/kg/injection, schedule: Q01DX009 (ip), vehicle: suspension in saline) was 104 % of control and 108 % of control. For the same compound, the T/C (dose: 40.0 mg/kg/injection, schedule: Q01DX009 (ip), vehicle: suspension in saline) was 103 % of control and 106 % of control and the T/C (dose: 80.0 mg/kg/injection, schedule: Q01DX009 (ip), vehicle: suspension in saline) was 114 % of control and 116 % of control.

For `Nc1nc([Se]c2nc(N)nc3c2ncn3C2OC(CO)C(O)C2O)c2ncn(C3OC(CO)C(O)C3O)c2n1` (centres undefined), the T/C (dose: 12.5 mg/kg/injection, schedule: Q01DX005 (ip), vehicle: distilled water + Tween-80) was 106 % of control, the T/C (dose: 25.0 mg/kg/injection, schedule: Q01DX005 (ip), vehicle: distilled water + Tween-80) was 115 % of control and the T/C (dose: 36.0 mg/kg/injection, schedule: Q01DX009 (ip), vehicle: distilled water + Tween-80) was 151 % of control. For the same compound, the T/C (dose: 50.0 mg/kg/injection, schedule: Q01DX005 (ip), vehicle: distilled water + Tween-80) was 122 % of control, the T/C (dose: 60.0 mg/kg/injection, schedule: Q01DX009 (ip), vehicle: distilled water + Tween-80) was 151 % of control and 168 % of control and the T/C (dose: 100.0 mg/kg/injection, schedule: Q01DX009 (ip), vehicle: distilled water + Tween-80) was 156 % of control and 164 % of control. For the same compound, the T/C (dose: 167.0 mg/kg/injection, schedule: Q01DX009 (ip), vehicle: distilled water + Tween-80) was 255 % of control and 297 % of control.

For `Clc1ccc(CSc2ncnc3nc[nH]c23)cc1`, the T/C (dose: 38.9 mg/kg/injection, schedule: Q01DX Z (sc), vehicle: methylcellulose (MC)) was 100 % of control, the T/C (dose: 64.8 mg/kg/injection, schedule: Q01DX Z (sc), vehicle: methylcellulose (MC)) was 100 % of control and the T/C (dose: 108.0 mg/kg/injection, schedule: Q01DX Z (sc), vehicle: methylcellulose (MC)) was 100 % of control. For the same compound, the T/C (dose: 180.0 mg/kg/injection, schedule: Q01DX Z (sc), vehicle: methylcellulose (MC)) was 100 % of control, the T/C (dose: 300.0 mg/kg/injection, schedule: Q01DX Z (sc), vehicle: methylcellulose (MC)) was 100 % of control and the T/C (dose: 500.0 mg/kg/injection, schedule: Q01DX Z (sc), vehicle: methylcellulose (MC)) was 104 % of control.

`Nc1c(/C=C/c2cc3cc(C4=NCCN4)ccc3o2)[nH]c2cc(C3=NCCN3)ccc12` was tested, and the T/C (dose: 3.12 mg/kg/injection, schedule: Q01DX009 (ip), vehicle: Klucel (hydroxypropylcellulose) (HPC)) was 100 % of control, the T/C (dose: 6.25 mg/kg/injection, schedule: Q01DX009 (ip), vehicle: Klucel (hydroxypropylcellulose) (HPC)) was 100 % of control and the T/C (dose: 12.5 mg/kg/injection, schedule: Q01DX009 (ip), vehicle: Klucel (hydroxypropylcellulose) (HPC)) was 96 % of control. For the same compound, the T/C (dose: 25.0 mg/kg/injection, schedule: Q01DX009 (ip), vehicle: Klucel (hydroxypropylcellulose) (HPC)) was 106 % of control.

In the case of `O=C/C(Br)=C(/Br)C(=O)O`, the T/C (dose: 3.0 mg/kg/injection, schedule: Q01DX Z (sc), vehicle: other) was 100 % of control, the T/C (dose: 5.0 mg/kg/injection, schedule: Q01DX Z (sc), vehicle: other) was 100 % of control and the T/C (dose: 8.4 mg/kg/injection, schedule: Q01DX Z (sc), vehicle: other) was 100 % of control. The T/C [1] was 100 % of control and the T/C (dose: 39.0 mg/kg/injection, schedule: Q01DX Z (sc), vehicle: other) was 100 % of control.
